Laboratory results reported in ChEMBL document CHEMBL1140330, “Carbonic anhydrase inhibitors. Design of fluorescent sulfonamides as probes of tumor-associated carbonic anhydrase IX that inhibit isozyme IX-mediated acidification of hypoxic tumors” (J Med Chem, 2005).

Tests used:
Carbonic anhydrase 1 = Carbonic anhydrase 1 (Homo sapiens, UniProt P00915)
Description: Inhibition constant against human (cloned) isozyme (hCA I) by the CO2 hydration method

Carbonic anhydrase 2 = Carbonic anhydrase 2 (Homo sapiens, UniProt P00918)
Description: Inhibition constant against human (cloned) isozyme (hCA II) by CO2 hydration method

Carbonic anhydrase 9 = Carbonic anhydrase 9 (Homo sapiens, UniProt Q16790)
Description: Inhibition constant against human cloned isozyme (hCA IX) by CO2 hydration method

in vitro [1] = settings: human, whole blood; level measured in red blood cells
Description: Compound level in Red Blood Cells at 60 min, after exposure of 10 mL of Blood to compound solution by HPLC method

in vitro [2] = settings: human, whole blood; level measured in red blood cells; remark: listed apart in the source
Description: Compound level in Red Blood Cells at 48 h, after Exposure of 10 mL of Blood to Compound solution by electronic spectroscopic method

in vitro [3] = settings: human, whole blood; level measured in red blood cells; remark: listed apart in the source
Description: Compound level in Red Blood Cells at 30 min, after exposure of 10 mL of Blood to compound solution by HPLC method

in vitro [4] = settings: human, whole blood; level measured in red blood cells; remark: listed apart in the source
Description: Compound level in Red Blood Cells at 48 h, after exposure of 10 mL of Blood to compound solution by HPLC method

in vitro [5] = settings: human, whole blood; level measured in red blood cells; remark: listed apart in the source
Description: Compound level in Red Blood Cells at 60 min, after exposure of 10 mL of Blood to compound solution by electronic spectroscopic method

in vitro [6] = settings: human, whole blood; level measured in red blood cells; remark: listed apart in the source
Description: Compound level in Red Blood Cells at 30 min, after exposure of 10 mL of Blood to compound solution by electronic spectroscopic method

Sequence of Carbonic anhydrase 1 (P00915 whole entry): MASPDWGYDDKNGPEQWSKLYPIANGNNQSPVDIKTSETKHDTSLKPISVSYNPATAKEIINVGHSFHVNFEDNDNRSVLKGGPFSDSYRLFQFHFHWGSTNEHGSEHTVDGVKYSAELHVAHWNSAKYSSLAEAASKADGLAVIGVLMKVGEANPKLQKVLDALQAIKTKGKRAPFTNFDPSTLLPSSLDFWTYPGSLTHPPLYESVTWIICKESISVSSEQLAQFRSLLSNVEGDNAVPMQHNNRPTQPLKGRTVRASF

| Compound | Ki (Carbonic anhydrase 1) [nM] | Ki (Carbonic anhydrase 2) [nM] | Ki (Carbonic anhydrase 9) [nM] | concentration at 1 h (in vitro [1]) [µM] | concentration at 48 h (in vitro [2]) [µM] | concentration at 0.5 h (in vitro [3]) [µM] | concentration at 48 h (in vitro [4]) [µM] | concentration at 1 h (in vitro [5]) [µM] | concentration at 0.5 h (in vitro [6]) [µM] |
| --- | --- | --- | --- | --- | --- | --- | --- | --- | --- |
| NS(=O)(=O)c1ccc(CC/N=C(S)/N=C2/C=CC(=C3c4ccc(O)cc4Oc4cc(O)ccc43)C(C(=O)O)=C2)cc1 | 1300 |  |  |  |  |  |  |  |  |
| NS(=O)(=O)c1ccc(/N=C(S)/N=C2/C=CC(=C3c4ccc(O)cc4Oc4cc(O)ccc43)C(C(=O)O)=C2)c(Br)c1 | 1100 | 43 | 35 |  |  |  |  |  |  |
| NS(=O)(=O)c1ccc(/N=C(S)/N=C2/C=CC(=C3c4ccc(O)cc4Oc4cc(O)ccc43)C(C(=O)O)=C2)c(I)c1 | 1070 | 40 | 31 |  |  |  |  |  |  |
| NS(=O)(=O)c1ccc(/N=C(S)/N=C2/C=CC(=C3c4ccc(O)cc4Oc4cc(O)ccc43)C(C(=O)O)=C2)c(F)c1 | 980 |  | 30 |  |  |  |  |  |  |
| Cc1cc(C)[n+](Cc2ccc(S(N)(=O)=O)cc2)cc1C.[O-][Cl+3]([O-])([O-])[O-] | 7000 | 50 | 38 | 0.4 | 0.5 | 0.3 | 0.3 | 0.5 | 0.5 |
| NS(=O)(=O)c1ccc(/N=C(S)/N=C2/C=CC(=C3c4ccc(O)cc4Oc4cc(O)ccc43)C(C(=O)O)=C2)c(Cl)c1 | 950 | 52 | 32 |  |  |  |  |  |  |
| NS(=O)(=O)c1ccc(C/N=C(S)/N=C2/C=CC(=C3c4ccc(O)cc4Oc4cc(O)ccc43)C(C(=O)O)=C2)cc1 | 1450 |  | 26 |  |  |  |  |  |  |
| NCCc1ccc(S(N)(=O)=O)cc1 |  |  |  | 162 | 168 | 132 | 167 | 165 | 138 |
| CC(=O)/N=c1/sc(S(N)(=O)=O)nn1C [METHAZOLAMIDE] |  |  |  | 168 | 169 | 170 | 167 | 168 | 169 |
